Residue numbers refer to the chain shown, from its start.
Key:
Assay type in all cases: biochemical
[1] = molecular target: T1, PKA-Iα (Homo sapiens, UniProt P10644); assay: PKA activity assay (coupled spectrophotometric, Kemptide), PKA-Iα; conditions: PKAIα
T1 construct: made in house
Method: (§1) The recombinant human PKA catalytic subunit (Cα1) and the four human PKA regulatory subunits (RIα, RIβ, RIIα, RIIβ) were expressed, purified, and characterized as described. […] PKA holoenzymes were formed by mixing the R- and C-subunit at a molar ratio of 1.2:1 and extensive dialysis against 20 mM MOPS (pH 7.0), 150 mM NaCl, 2.5 mM β-mercaptoethanol, supplemented with 1 mM ATP and 10 mM MgCl2 for PKA-I at 4°C overnight. PKA holoenzymes were used at about 20 nM for the activation assay. The apparent activation constants (Kact) were determined by fitting the concentration-dependent activity to a sigmoid dose-response model.

[2] = molecular target: T2, Epac2^Δ280,K450E (Mus musculus, UniProt Q9EQZ6, K468E); assay: Epac activation assay, Epac2 K450E mutant
T2 construct: made in house
T2 sequence (Q9EQZ6 281-993 isoform Q9EQZ6-3 K450E): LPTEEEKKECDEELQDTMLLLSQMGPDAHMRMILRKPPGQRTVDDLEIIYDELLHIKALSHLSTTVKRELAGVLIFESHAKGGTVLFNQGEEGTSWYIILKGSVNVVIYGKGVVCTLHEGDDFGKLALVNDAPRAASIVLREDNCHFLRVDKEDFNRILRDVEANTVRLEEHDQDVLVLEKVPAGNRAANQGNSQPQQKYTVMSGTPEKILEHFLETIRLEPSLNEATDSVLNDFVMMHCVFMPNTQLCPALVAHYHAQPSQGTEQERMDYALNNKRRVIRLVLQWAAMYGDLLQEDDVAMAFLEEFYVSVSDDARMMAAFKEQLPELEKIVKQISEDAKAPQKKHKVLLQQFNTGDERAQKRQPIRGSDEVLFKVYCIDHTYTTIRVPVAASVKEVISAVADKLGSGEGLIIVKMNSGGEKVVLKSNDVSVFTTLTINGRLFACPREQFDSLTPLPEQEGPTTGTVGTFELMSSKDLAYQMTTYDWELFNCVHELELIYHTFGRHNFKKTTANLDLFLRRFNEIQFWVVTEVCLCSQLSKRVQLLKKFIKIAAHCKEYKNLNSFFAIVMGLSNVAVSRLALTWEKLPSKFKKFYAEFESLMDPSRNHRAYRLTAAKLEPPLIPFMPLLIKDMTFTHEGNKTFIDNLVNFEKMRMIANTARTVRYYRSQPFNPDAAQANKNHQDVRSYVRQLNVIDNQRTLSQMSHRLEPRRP
Method: (§2) Murine Epac2 was used as all previous structural studies were performed with it.
(§3) The activity of Epac was determined by a fluorescence assay. […] The fluorescence intensity of Rap1B•mGDP is approximately twice that of free mGDP, and thus, nucleotide exchange can be observed as a decay in fluorescence upon the addition of excess unlabeled GDP.

[3] = molecular target: T3, Epac2^Δ280 (Mus musculus, UniProt Q9EQZ6); assay: Epac activation assay (Rap1B•mGDP fluorescence nucleotide exchange), Epac2^Δ280
T3 construct: made in house
T3 sequence (Q9EQZ6 281-993 isoform Q9EQZ6-3): T2 sequence (Q9EQZ6 281-993 isoform Q9EQZ6-3 K450E) with E170K
Method: as §2, §3

[4] = molecular target: T4, PKA-IIα (Homo sapiens, UniProt P13861); assay: PKA activity assay, PKA-IIα; conditions: for A (PKA activity): PKAIIα
T4 construct: made in house
T4 sequence (P13861 whole entry): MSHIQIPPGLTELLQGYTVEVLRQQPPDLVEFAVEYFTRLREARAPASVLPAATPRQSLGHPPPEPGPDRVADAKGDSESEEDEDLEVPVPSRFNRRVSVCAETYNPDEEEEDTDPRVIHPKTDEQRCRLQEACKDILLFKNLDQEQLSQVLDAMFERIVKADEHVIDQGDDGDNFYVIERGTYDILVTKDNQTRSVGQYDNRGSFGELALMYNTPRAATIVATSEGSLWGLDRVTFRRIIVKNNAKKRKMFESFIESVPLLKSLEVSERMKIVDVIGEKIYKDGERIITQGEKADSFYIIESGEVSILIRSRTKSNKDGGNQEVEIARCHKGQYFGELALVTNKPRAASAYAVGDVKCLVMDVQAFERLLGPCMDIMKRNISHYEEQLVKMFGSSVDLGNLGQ
Method: as §1

T1 sequence (P10644 whole entry): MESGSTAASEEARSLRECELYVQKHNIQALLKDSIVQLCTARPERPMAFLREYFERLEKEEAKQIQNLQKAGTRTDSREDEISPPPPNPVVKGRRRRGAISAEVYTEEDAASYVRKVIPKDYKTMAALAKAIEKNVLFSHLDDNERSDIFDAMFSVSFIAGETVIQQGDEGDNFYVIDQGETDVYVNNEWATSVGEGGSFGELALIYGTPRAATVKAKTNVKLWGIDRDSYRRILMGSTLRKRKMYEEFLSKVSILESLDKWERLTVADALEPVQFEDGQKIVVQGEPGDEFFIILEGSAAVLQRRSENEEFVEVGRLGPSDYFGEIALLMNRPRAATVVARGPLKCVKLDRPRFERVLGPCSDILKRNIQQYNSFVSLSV

## Nc1ncnc2c1ncn2[C@@H]1O[C@@H]2COP(=O)(O)O[C@H]2[C@H]1O [cAMP, reference compound]
[1]; concentration 1 μM
  A (PKA activity): 2.37E+01 U/mg
[1]; concentration 1.00E+01 μM
  A (PKA activity): 2.34E+01 U/mg
[1]; concentration 1.00E+02 μM
  A (PKA activity): 2.51E+01 U/mg
[1]; concentration 1.00E-01 μM
  A (PKA activity): 1.43E+01 U/mg
[1]; concentration 1.00E-02 μM
  A (PKA activity): 4.4268 U/mg
[1]; concentration 1.00E-03 μM
  A (PKA activity): 1.4399 U/mg
[1]; concentration 1.00E-05 μM
  A (PKA activity): 2.9393 U/mg
[1]; concentration 2.50E-01 μM
  A (PKA activity): 1.93E+01 U/mg
[1]; concentration 2.50E-02 μM
  A (PKA activity): 7.9492 U/mg
[1]; concentration 5.00E-02 μM
  A (PKA activity): 9.6152 U/mg
[2]; 0.01 μM compound
  kobs: 3.01e-05 s⁻¹
[2]; 0.05 μM compound
  kobs: 4.19e-05 s⁻¹
[2]; 0.08 μM compound
  kobs: 5.14e-05 s⁻¹
[2]; 0.1 μM compound
  kobs: 5.5e-05 s⁻¹
[2]; 0.2 μM compound
  kobs: 8.25e-05 s⁻¹
[2]; 0.3 μM compound
  kobs: 9.73e-05 s⁻¹
[2]; 0.4 μM compound
  kobs: 0.000114 s⁻¹
[2]; 0.5 μM compound
  kobs: 0.000124 s⁻¹
[2]; 0.6 μM compound
  kobs: 0.000146 s⁻¹
[2]; 0.7 μM compound
  kobs: 0.000155 s⁻¹
[2]; 0.8 μM compound
  kobs: 0.000161 s⁻¹
[2]; 1 μM compound
  kobs: 0.00017 s⁻¹
[2]; 2 μM compound
  kobs: 0.000246 s⁻¹
[2]; 3 μM compound
  kobs: 0.000274 s⁻¹
[2]; 4 μM compound
  kobs: 0.000285 s⁻¹
[2]; 5 μM compound
  kobs: 0.000283 s⁻¹
[2]; 6 μM compound
  kobs: 0.000286 s⁻¹
[2]; 7 μM compound
  kobs: 0.000293 s⁻¹
[2]; 8 μM compound
  kobs: 0.000295 s⁻¹
[2]; 10 μM compound
  kobs: 0.000299 s⁻¹
[2]; 20 μM compound
  kobs: 0.000336 s⁻¹
[2]; 30 μM compound
  kobs: 0.000329 s⁻¹
[2]; 40 μM compound
  kobs: 0.000336 s⁻¹
[2]; 50 μM compound
  kobs: 0.000327 s⁻¹
[2]; 60 μM compound
  kobs: 0.000303 s⁻¹
[2]; 70 μM compound
  kobs: 0.000306 s⁻¹
[2]; 80 μM compound
  kobs: 0.000304 s⁻¹
[2]; 100 μM compound
  kobs: 0.000294 s⁻¹
[3]; 0.4 μM compound
  kobs: 9.9e-05 s⁻¹
[3]; 0.5 μM compound
  kobs: 0.000111 s⁻¹
[3]; 0.6 μM compound
  kobs: 0.000113 s⁻¹
[3]; 0.7 μM compound
  kobs: 0.000125 s⁻¹
[3]; 0.8 μM compound
  kobs: 0.000132 s⁻¹
[3]; 1 μM compound
  kobs: 0.000141 s⁻¹
[3]; 2 μM compound
  kobs: 0.000207 s⁻¹
[3]; 3 μM compound
  kobs: 0.000246 s⁻¹
[3]; 4 μM compound
  kobs: 0.000263 s⁻¹
[3]; 5 μM compound
  kobs: 0.000273 s⁻¹
[3]; 6 μM compound
  kobs: 0.000293 s⁻¹
[3]; 7 μM compound
  kobs: 0.000298 s⁻¹
[3]; 8 μM compound
  kobs: 0.000303 s⁻¹
[3]; 10 μM compound
  kobs: 0.00031 s⁻¹
[3]; 20 μM compound
  kobs: 0.000328 s⁻¹
[3]; 30 μM compound
  kobs: 0.000331 s⁻¹
[3]; Epac2, assuming the most efficient activators shift the equilibrium fully
  share of cAMP bound protein still in an inactive conformation: ~85%
[4]; PKA-IIα, read-out: Kact
  EC50: 80 nM
[4]; concentration 1 μM
  A (PKA activity): 2.29E+01 U/mg
[4]; concentration 1.00E+01 μM
  A (PKA activity): 2.43E+01 U/mg
[4]; concentration 1.00E+02 μM
  A (PKA activity): 2.52E+01 U/mg
[4]; concentration 1.00E-01 μM
  A (PKA activity): 1.58E+01 U/mg
[4]; concentration 1.00E-02 μM
  A (PKA activity): 7.553 U/mg
[4]; concentration 1.00E-03 μM
  A (PKA activity): 5.677 U/mg
[4]; concentration 1.00E-04 μM
  A (PKA activity): 5.697 U/mg
[4]; concentration 1.00E-05 μM
  A (PKA activity): 3.782 U/mg
[4]; concentration 2.50E+02 μM
  A (PKA activity): 2.55E+01 U/mg
[4]; concentration 2.50E-01 μM
  A (PKA activity): 1.90E+01 U/mg
[4]; concentration 2.50E-02 μM
  A (PKA activity): 1.02E+01 U/mg

— PMC4300089, “Structure-Guided Design of Selective Epac1 and Epac2 Agonists” (PLoS Biology, 2015)
